Test results: paper PMC10508484, “Development and application of a PBPK modeling strategy to support antimalarial drug development” (CPT: Pharmacometrics & Systems Pharmacology, 2023)
Where two headings read alike, the source gives them in different places.

What was measured:
[1] = In vitro flags for victim and perpetrator properties conferring DDI liability; format: in vitro ADME, human; details: in vitro flag, mainly based on in vitro determinations
CYP2D6 [2] = target: T1, CYP2D6 (Homo sapiens, UniProt P10635); test: CYP2D6 inhibition
T1 sequence (P10635 whole entry): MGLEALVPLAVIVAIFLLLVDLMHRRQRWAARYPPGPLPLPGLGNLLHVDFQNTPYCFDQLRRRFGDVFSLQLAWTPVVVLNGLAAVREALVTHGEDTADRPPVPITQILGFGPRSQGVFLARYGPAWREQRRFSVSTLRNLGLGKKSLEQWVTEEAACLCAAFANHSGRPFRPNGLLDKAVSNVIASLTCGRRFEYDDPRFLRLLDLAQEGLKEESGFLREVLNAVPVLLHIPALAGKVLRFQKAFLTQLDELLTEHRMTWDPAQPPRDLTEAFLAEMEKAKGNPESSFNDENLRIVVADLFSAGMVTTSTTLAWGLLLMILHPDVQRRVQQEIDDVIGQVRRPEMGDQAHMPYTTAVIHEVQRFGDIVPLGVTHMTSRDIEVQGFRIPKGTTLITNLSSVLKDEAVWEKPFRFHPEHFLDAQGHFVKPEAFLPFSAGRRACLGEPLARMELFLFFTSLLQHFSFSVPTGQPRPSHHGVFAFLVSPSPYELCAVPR

Caco-2 cells = details: cited from earlier work
[3] = cited from earlier work
[4] = cited from earlier work; remark: listed apart in the source
[5] = ref Charman et al., 2020 1; cited from earlier work
[6] = PBPK input; ref atovaquone oral bioavailability Lavelle et al., 1994 17; chloroquine Walker et al., 1987 29; doxycycline Fabre et al., 1966 45, Saivin et al., 1988 46; proguanil Ke et al., 2014 64; pyronaridine mass balance study Morris et al., 2015 72; cited from earlier work
CYP2C8 = target: T2, CYP2C8 (Homo sapiens, UniProt P10632); test: Metabolism by CYP2C8 (CLint, fm); details: for fmCYP2C8: fraction metabolised used in the PBPK model
T2 sequence (P10632 1-490): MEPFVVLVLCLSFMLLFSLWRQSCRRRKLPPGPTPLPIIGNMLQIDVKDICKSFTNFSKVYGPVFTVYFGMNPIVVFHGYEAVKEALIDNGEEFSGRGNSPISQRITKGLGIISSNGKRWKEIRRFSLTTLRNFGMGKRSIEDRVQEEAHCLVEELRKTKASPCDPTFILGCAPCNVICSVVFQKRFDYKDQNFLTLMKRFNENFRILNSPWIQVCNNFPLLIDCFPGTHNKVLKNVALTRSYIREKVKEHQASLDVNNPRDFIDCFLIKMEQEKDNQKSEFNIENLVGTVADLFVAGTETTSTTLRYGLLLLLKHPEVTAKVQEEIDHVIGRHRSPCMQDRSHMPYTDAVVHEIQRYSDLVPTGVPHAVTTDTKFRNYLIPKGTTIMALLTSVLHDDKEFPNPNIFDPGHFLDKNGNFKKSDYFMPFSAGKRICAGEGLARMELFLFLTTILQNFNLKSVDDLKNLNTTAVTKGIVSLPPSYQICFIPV
Text: (§1) In nearly all cases the fraction of systemic elimination metabolised by a given enzyme (fm) determined in vitro was unavailable in the literature.

[7] = measured (0.4 mg/mL protein where stated); ref Charman et al., 2020 1; cited from earlier work
[8] = In vivo clearance (CL IV, CL PO, CL renal, fe); details: chloroquine model
[9] = cited from earlier work; for Main binding protein: ref amodiaquine, DEAQ Hietala, 2009 2, atovaquone Nixon et al., 2013 13, 2004 41, mefloquine, tafenoquine (also AGP) Zsila et al., 2008 54
UGT2B7 = test: Metabolism by UGT2B7; format: in vitro ADME, human; details: equal contribution assumed
Text: as §1

[10] = PBPK absorption inputs (fa, ka, tlag, Qgut, Fg); design: species or system human; details: Relative fa (in vivo fasted AUC / fed AUC; Reuter et al., 2015 for DHA, Crevoisier et al., 1997 for mefloquine)
Text: Initial models were built based on available physicochemical and in vitro data to give a ‘bottom-up’ prediction. Areas of uncertainty were highlighted, and the potential impact of uncertainty associated with such parameters was investigated using sensitivity analysis. Available clinical PK data were then used to evaluate and, if required, refine the initial ‘bottom-up’ model. Care was taken to split data into training and test sets wherever possible. The model verification strategy differed across compounds based on availability of different types of clinical data. […] Clinical studies used for drug model development and verification are reported in Table S2 (PK) and Table S3 (DDIs).

[11] = PBPK input; ref Charman et al., 2020 1; cited from earlier work
[12] = Fraction unbound in human liver microsomes (fumic); details: extrapolated from value measured at 0.4 mg/mL to 0.1 mg/mL, method of Austin et al., 2002
UGT1A9 = test: Metabolism by UGT1A9; format: in vitro ADME, human; details: equal contribution assumed
Text: as §1

CYP1A2 [13] = details: read-out: CYP1A2 Ki; ref Charman et al., 2020 1; cited from earlier work
CYP2B6 = test: Metabolism by CYP2B6 (CLint, Vmax, Km, fm); format: in vitro ADME, human
Text: as §1

[14] = Blood to plasma ratio (B:P); details: PBPK input; unpublished (in-house) data
CYP3A4 = CYP3A4 (Homo sapiens, UniProt P08684)
CYP3A4, sequence (P08684 whole entry): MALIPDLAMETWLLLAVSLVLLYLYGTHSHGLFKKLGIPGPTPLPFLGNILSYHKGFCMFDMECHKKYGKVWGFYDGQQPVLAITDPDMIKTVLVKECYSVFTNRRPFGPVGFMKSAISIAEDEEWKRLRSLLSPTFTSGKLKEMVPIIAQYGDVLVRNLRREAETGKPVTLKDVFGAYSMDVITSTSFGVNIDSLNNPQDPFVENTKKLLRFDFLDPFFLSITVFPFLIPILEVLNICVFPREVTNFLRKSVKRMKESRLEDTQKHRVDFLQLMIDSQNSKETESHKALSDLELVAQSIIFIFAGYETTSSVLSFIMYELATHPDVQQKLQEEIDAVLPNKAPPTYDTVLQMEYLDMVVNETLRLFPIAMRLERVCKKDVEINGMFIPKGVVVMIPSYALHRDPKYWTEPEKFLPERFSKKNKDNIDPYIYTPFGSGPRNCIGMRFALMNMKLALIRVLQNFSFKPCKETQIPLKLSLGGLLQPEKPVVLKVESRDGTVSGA
Text: as §1

CYP1A2 [15] = test: Metabolism by CYP1A2 (CLint, fm); format: in vitro ADME, human
Text: as §1

in vitro = details: human, plasma
CYP2D6 [16] = target: T1, CYP2D6; test: Metabolism by CYP2D6 (CLint, fm)
Text: as §1

CYP2C9 = details: ref mefloquine Karbwang et al., 1988 58; tafenoquine Charman et al., 2020 1; cited from earlier work
[17] = PBPK input, ref amodiaquine, DEAQ Winstanley et al., 1987 9, atovaquone Rolan et al., 1997 14, azithromycin Lalak et al., 1993 23, carboxyprimaquine Mihaly et al., 1985 26, chloroquine Walker et al., 1987 29, DHA EMA Website, 44, doxycycline Raghuram et al., 1982 48, Nguyen et al., 1989 49, mefloquine Schwartz et al., 1982 57, primaquine White, 1985 62, proguanil Jeppesen et al., 1997 34, pyrimeth
[18] = clinically observed oral (in vivo) clearance, pyronaridine: blood, ref amodiaquine Winstanley et al., 1987 9, DEAQ Akande et al., 2015 8, Scarsi et al., 2014 35, Tarning et al., 2012 36, Orrell et al., 2008 37, DHA Na-Bangchang et al., 2004 42, lumefantrine Lefevre et al., 2002 52, Hoglund et al., 2015 53, mefloquine Charles et al., 2007 56, proguanil Jeppesen et al., 1997 34, pyronaridine Jittama
[19] = retrograde calculations from CL PO, blood
[20] = fraction metabolised used in the PBPK model

Q: What does the source list for CCN(CC)Cc1cc(Nc2ccnc3cc(Cl)ccc23)ccc1O [Amodiaquine, amodiaquine]?
A: Risk as a victim [1]: Substrate of CYP2C8; Ki (CYP2D6 [2]): 0.45 µM; Caco-2 (Papp A-B) (Caco-2 cells; Caco-2): 9.8 10-6 cm/s; AUC Obs ([3]; in vivo, 540 mg): 331 ng·h/mL; CL PO ([4]; in vivo, po): 2500 L/h; CL renal ([4]; in vivo): 3.5 L/h

Q: Which results are given for CCN(CC)CCCC(C)Nc1ccnc2cc(Cl)ccc12 (stereo not shown) [Chloroquine, chloroquine]?
A: B:P [5]: 3.5; fa [6]: 1; Risk as a perpetrator [1]: CYP2D6 inhibitor; Risk as a victim [1]: Substrate of CYP2C8 and CYP3A4; renally cleared; fmCYP2C8 (CYP2C8): 11%; CLint CYP2C8 (CYP2C8; human): 0.27 µL/min/pmol; fumic [7]: 0.5; Cmax Obs ([3]; 300 mg infusion (over 23.5 mins) SD, ref Gustafsson et al., 1983 16): 837 ng/mL; Cmax Obs ([3]; 300 mg soln. SD, ref Gustafsson et al., 1983 16): 73.0 ng/mL; Cmax Obs ([3]; 300 mg tablet SD, ref Gustafsson et al., 1983 16): 76.0 ng/mL; renal clearance share of elimination [8]: 57%; CL renal [4, 17]: 24.78 L/h; CL IV ([4]; clinically observed, ref atovaquone Lavelle et al., 1994 17, chloroquine Walker et al., 1987 29, Gustafsson et al., 1983 30, doxycycline Raghuram et al., 1982 48, Nguyen et al., 1989 49, primaquine Mihaly et al., 1985 26, quinine White et al., 1983 77, Paintaud et al., 1993 78): 39.84 L/h

Q: Which Main binding protein ([9]; DHA Batty et al.) does the source give for C[C@H]1[C@@H](O)O[C@@H]2O[C@@]3(C)CC[C@H]4[C@H](C)CC[C@@H]1[C@@]24OO3 [DHA, dihydroartemisinin] here?
A: Its Main binding protein is “AGP”.

Q: What about the “Risk as a perpetrator” value [1] of the same compound?
A: The value was “CYP1A2 inhibitor”.

Q: What about the “Risk as a victim” value [1] of the same compound?
A: Its value is “Substrate of UGT1A9 and UGT2B7”.

Q: And the “Caco-2 (Papp A-B)” value (Caco-2 cells; calibrated against propranolol, plasma as medium for atovaquone and piperaquine, ref Charman et al., 2020 1)?
A: The value was 49 10-6 cm/s.

Q: What about the fmUGT2B7 (UGT2B7) of the same compound?
A: Its fmUGT2B7 is 50%.

Q: And the fa ([10]; listed as DHA (administered as DHA))?
A: Its fa is 0.71.

Q: And the fa ([10]; listed as DHA (administered as artesunate))?
A: Its fa is 1.

Q: And the “Log P” value [11]?
A: The value was 2.3.

Q: What about the fumic [12] of the same compound?
A: The fumic was 0.964.

Q: And the “AUC Obs” value ([3]; 4 mg/kg SD, 0-inf, ref Na-Bangchang et al., 2004 20)?
A: The value was 907 ng·h/mL.

Q: What about the “AUC Obs” value ([3]; 120 mg SD, 0-inf, ref Chinh et al., 2009 23) of the same compound?
A: The value was 370 ng·h/mL.

Q: And the “AUC Obs” value ([3]; 180 mg SD (artesunate), 0-inf, ref Jittamala et al., 2015 15)?
A: Its value is 1400 ng·h/mL.

Q: And the “AUC Obs” value ([3]; 240 mg SD, 0-inf, ref Le et al., 1999 22)?
A: Its value is 1980 ng·h/mL.

Q: And the “AUC Obs” value ([3]; 300 mg SD, 0-inf, ref Na-Bangchang et al., 1997 21)?
A: The value was 2018 ng·h/mL.

Q: And the fmUGT1A9 (UGT1A9)?
A: The fmUGT1A9 was 50%.

Q: And the Ki (CYP1A2 [13])?
A: The Ki was 4.38 µM.

Q: And the “CL PO” value [4, 18]?
A: Its value is 273.2 L/h.

Q: What does the source list for COc1ccc2nc3cc(Cl)ccc3c(Nc3cc(CN4CCCC4)c(O)c(CN4CCCC4)c3)c2n1 [Pyronaridine, pyronaridine]?
A: fmCYP2B6 (CYP2B6; fraction metabolised used in the PBPK model (artemether: without induction)): 7.7%; CLint CYP2B6 (CYP2B6; [19]): 0.47 µL/min/pmol; fa [6]: 0.74; B:P [14]: 1.5; Risk as a perpetrator [1]: CYP2D6 and P‐gp inhibitor; Risk as a victim [1]: Substrate of CYP1A2, CYP2B6, CYP2C8, CYP2D6 and CYP3A4; fmCYP3A4 (CYP3A4): 61.1%; CLint CYP3A4 (CYP3A4; microsomes): 0.42 µL/min/pmol; fmCYP1A2 (CYP1A2 [15]; [20]): 4.7%; CLint CYP1A2 (CYP1A2 [15]; [19]): 0.09 µL/min/pmol; CLint CYP2C8 (CYP2C8; derived from in vivo clearance by retrograde calculations): 0.19 µL/min/pmol; fmCYP2C8 (CYP2C8): 4.8%; fraction unbound (in vitro): 0.058; fmCYP2D6 (CYP2D6 [16]; [20]): 20.6%; CLint CYP2D6 (CYP2D6 [16]; retrograde calculations): 1.33 µL/min/pmol; CL renal [4, 17]: 0.16 L/h; CL PO [4, 18]: 22.1 L/h; fe (fraction excreted unchanged in urine) ([4]; ref atovaquone Rolan et al., 1997 14, mefloquine Schwartz et al., 1982 57, primaquine White, 1985 62, proguanil (extensive metabolisers) Jeppesen et al., 1997 34, pyronaridine Wattanavijitkul, 2010 74, sulfadoxine assumed with Edstein, 1987 83): 1%

Q: With COc1cc(C)c2c(Oc3cccc(C(F)(F)F)c3)c(OC)cc(NC(C)CCCN)c2n1 (stereo not shown) [Tafenoquine, tafenoquine] as the compound, how does the fu ([9]; PBPK input, ref atovaquone Mepron Prescribing Information, 2008, Nixon et al., 2013 13, Rolan et al., 1997 14, azithromycin Foulds et al., 1990 20, chloroquine Ofori-Adjei et al., 1986 27, Walker et al., 1983 28, DHA Batty et al., 2004 41 (healthy volunteers), lumefantrine CDER submission 22-269, proguanil Wattanagoon et al., 1987 63, tafenoquine Dow et al., 2020 84) read?
A: Its fu is 0.005.

Q: And the “fu, range reported in the literature” value ([9]; depending on the methodology used, ref literature)?
A: Its value is 0.0007 to 0.11.

Q: What about the Main binding protein ([9]; DHA Batty et al.) of the same compound?
A: Its Main binding protein is “HSA”.

Q: What about the “B:P” value [5] of the same compound?
A: The value was 1.3.

Q: What about the “Risk as a perpetrator” value [1] of the same compound?
A: Its value is “CYP3A4 and CYP2C9 inhibitor”.

Q: And the Ki (CYP2C9)?
A: Its Ki is 10 µM.

Q: And the “AUC Obs” value ([3]; 300 mg SD, 0-72 h, ref Green et al., 2014 45)?
A: Its value is 10611 ng·h/mL.

Q: What about the “Cmax Obs” value ([3]; 300 mg SD, ref Green et al., 2014 45) of the same compound?
A: Its value is 186 ng/mL.

Q: And the “AUC Obs” value ([3]; 400 mg QD (3 days), 0-72 h, ref Green et al., 2014 45)?
A: Its value is 41896 ng·h/mL.

Q: What about the “Cmax Obs” value ([3]; 400 mg QD (3 days), ref Green et al., 2014 45) of the same compound?
A: The value was 724 ng/mL.

Q: What about the “AUC Obs” value ([3]; 600 mg SD, 0-72 h, ref Green et al., 2014 45) of the same compound?
A: The value was 22986 ng·h/mL.

Q: What about the “Cmax Obs” value ([3]; 600 mg SD, ref Green et al., 2014 45) of the same compound?
A: Its value is 422 ng/mL.

Q: And the “CL PO” value [4, 18]?
A: Its value is 3.08 L/h.
